Here are results for ten compounds from ChEMBL document CHEMBL2396590, “Inhibition of HIV-1 integrase dimerization and activity with crosslinked interfacial peptides” (Bioorg Med Chem, 2013).

Active and inactive are the calls of the source. The calls are words filed in the database; no cut-off is given here. Starred links: 1 amine or outer side, 2 acyl side, 3 side chain; linkers in the order of their positions; H or OH if unused. Non-standard residues stand in square brackets, D forms with d. Residues, ends and D or L forms follow the SMILES beside them. NH(CH2)9CO = O=C(CCCCCCCCCN[*:1])[*:2]; NH(CH2)8CO = O=C(CCCCCCCCN[*:1])[*:2]; 12Ado = NCCCCCCCCCCCC(=O)O; Aun = NCCCCCCCCCCC(=O)O; AEEA = NCCOCCOCC(=O)O; Aoc = NCCCCCCCC(=O)O; Ahp = NCCCCCCC(=O)O; Ava = NCCCCC(=O)O

The test system of experiment [1] is Human immunodeficiency virus type 1 integrase (Human immunodeficiency virus 1), Q7ZJM1 [F185K,C280S]. The experiment can be described thus: Inhibition of HIV1 integrase F185K/C280S double mutant dimerization expressed in Escherichia coli BL21 (DE3) at 110 uM after 1 hr by PAGE analysis.
Experiment [2] deals with Human immunodeficiency virus type 1 integrase (Human immunodeficiency virus 1, UniProt Q7ZJM1, C280S/F185K). The experiment can be described thus: Inhibition of HIV1 3'-processing activity of integrase F185K/C280S double mutant expressed in Escherichia coli BL21 (DE3).

For orientation: IC50 means the concentration at which inhibition is half-maximal. Low values mean inhibition by little substance, high ones a need for much substance. For the compound `CC[C@H](C)[C@H](NC(=O)[C@H](CC(=O)O)NC(=O)[C@@H](NC(=O)[C@H](C)NC(=O)[C@@H](NC(=O)[C@@H](NC(=O)[C@H](CC(=O)O)NC(=O)[C@@H](NC(=O)[C@@H](NC(=O)[C@H](CCCNC(=N)N)NC(=O)[C@H](CCC(=O)O)NC(=O)CNC(=O)[C@H](C)NC(=O)CCCCCCCCCCCNC(=O)[C@H](CCCNC(=N)N)NC(=O)[C@H](CCCCN)NC(=O)[C@H](Cc1ccccc1)NC(=O)[C@H](CC(N)=O)NC(=O)[C@H](Cc1cnc[nH]1)NC(=O)[C@@H](NC(=O)[C@H](Cc1ccccc1)NC(=O)[C@@H](NC(=O)[C@H](C)NC(=O)[C@H](CCSC)NC(=O)[C@H](CCC(N)=O)NC(=O)[C@@H](NC(=O)[C@H](C)NC(=O)[C@@H](NC(=O)[C@H](CCCCN)NC(=O)[C@H](CC(C)C)NC(=O)[C@@H](N)Cc1cnc[nH]1)[C@@H](C)O)C(C)C)C(C)C)[C@@H](C)CC)[C@@H](C)CC)C(C)C)[C@@H](C)CC)[C@@H](C)CC)[C@@H](C)O)C(=O)N[C@@H](CCC(N)=O)C(N)=O` (H-HLKTAVQMAVFIHNFKR[12Ado]AGERIVDIIATDIQ-NH2), in experiment [1], the inhibition result was “Active”. Also, the IC50 in experiment [2] worked out at 1300 nM.
Take `CC[C@H](C)[C@H](NC(=O)[C@H](CC(=O)O)NC(=O)[C@@H](NC(=O)[C@H](C)NC(=O)[C@@H](NC(=O)[C@@H](NC(=O)[C@H](CC(=O)O)NC(=O)[C@@H](NC(=O)[C@@H](NC(=O)[C@H](CCCNC(=N)N)NC(=O)[C@H](CCC(=O)O)NC(=O)CNC(=O)[C@H](C)NC(=O)COCCOCCNC(=O)[C@H](CCCNC(=N)N)NC(=O)[C@H](CCCCN)NC(=O)[C@H](Cc1ccccc1)NC(=O)[C@H](CC(N)=O)NC(=O)[C@H](Cc1cnc[nH]1)NC(=O)[C@@H](NC(=O)[C@H](Cc1ccccc1)NC(=O)[C@@H](NC(=O)[C@H](C)NC(=O)[C@H](CCSC)NC(=O)[C@H](CCC(N)=O)NC(=O)[C@@H](NC(=O)[C@H](C)NC(=O)[C@@H](NC(=O)[C@H](CCCCN)NC(=O)[C@H](CC(C)C)NC(=O)[C@@H](N)Cc1cnc[nH]1)[C@@H](C)O)C(C)C)C(C)C)[C@@H](C)CC)[C@@H](C)CC)C(C)C)[C@@H](C)CC)[C@@H](C)CC)[C@@H](C)O)C(=O)N[C@@H](CCC(N)=O)C(N)=O` (H-HLKTAVQMAVFIHNFKR[AEEA]AGERIVDIIATDIQ-NH2): the inhibition entry in experiment [1] is “Active”. In addition, in experiment [2], half-maximal inhibition (IC50) was put at 1070 nM.
Turning to `CC[C@H](C)[C@H](NC(=O)[C@H](CC(=O)O)NC(=O)[C@@H](NC(=O)[C@H](C)NC(=O)[C@@H](NC(=O)[C@@H](NC(=O)[C@H](CC(=O)O)NC(=O)[C@@H](NC(=O)[C@@H](NC(=O)[C@H](CCCNC(=N)N)NC(=O)[C@H](CCC(=O)O)NC(=O)CNC(=O)[C@H](C)NC(=O)CCCCCCNC(=O)[C@H](CCCNC(=N)N)NC(=O)[C@H](CCCCN)NC(=O)[C@H](Cc1ccccc1)NC(=O)[C@H](CC(N)=O)NC(=O)[C@H](Cc1cnc[nH]1)NC(=O)[C@@H](NC(=O)[C@H](Cc1ccccc1)NC(=O)[C@@H](NC(=O)[C@H](C)NC(=O)[C@H](CCSC)NC(=O)[C@H](CCC(N)=O)NC(=O)[C@@H](NC(=O)[C@H](C)NC(=O)[C@@H](NC(=O)[C@H](CCCCN)NC(=O)[C@H](CC(C)C)NC(=O)[C@@H](N)Cc1cnc[nH]1)[C@@H](C)O)C(C)C)C(C)C)[C@@H](C)CC)[C@@H](C)CC)C(C)C)[C@@H](C)CC)[C@@H](C)CC)[C@@H](C)O)C(=O)N[C@@H](CCC(N)=O)C(N)=O` (H-HLKTAVQMAVFIHNFKR[Ahp]AGERIVDIIATDIQ-NH2), the inhibition entry in experiment [1] is “Active”. Moreover, half-maximal inhibition in experiment [2] (IC50) required 910 nM.
In the same order, the values of `CC[C@H](C)[C@H](NC(=O)[C@H](CC(=O)O)NC(=O)[C@@H](NC(=O)[C@H](C)NC(=O)[C@@H](NC(=O)[C@@H](NC(=O)[C@H](CC(=O)O)NC(=O)[C@@H](NC(=O)[C@@H](NC(=O)[C@H](CCCNC(=N)N)NC(=O)[C@H](CCC(=O)O)NC(=O)CNC(=O)[C@H](C)NC(=O)CCCCCCCNC(=O)[C@H](CCCNC(=N)N)NC(=O)[C@H](CCCCN)NC(=O)[C@H](Cc1ccccc1)NC(=O)[C@H](CC(N)=O)NC(=O)[C@H](Cc1cnc[nH]1)NC(=O)[C@@H](NC(=O)[C@H](Cc1ccccc1)NC(=O)[C@@H](NC(=O)[C@H](C)NC(=O)[C@H](CCSC)NC(=O)[C@H](CCC(N)=O)NC(=O)[C@@H](NC(=O)[C@H](C)NC(=O)[C@@H](NC(=O)[C@H](CCCCN)NC(=O)[C@H](CC(C)C)NC(=O)[C@@H](N)Cc1cnc[nH]1)[C@@H](C)O)C(C)C)C(C)C)[C@@H](C)CC)[C@@H](C)CC)C(C)C)[C@@H](C)CC)[C@@H](C)CC)[C@@H](C)O)C(=O)N[C@@H](CCC(N)=O)C(N)=O` (H-HLKTAVQMAVFIHNFKR[Aoc]AGERIVDIIATDIQ-NH2) are “Active” and 680 nM.
On the same counts, the results for `CC[C@H](C)[C@H](NC(=O)[C@H](CC(=O)O)NC(=O)[C@@H](NC(=O)[C@H](C)NC(=O)[C@@H](NC(=O)[C@@H](NC(=O)[C@H](CC(=O)O)NC(=O)[C@@H](NC(=O)[C@@H](NC(=O)[C@H](CCCNC(=N)N)NC(=O)[C@H](CCC(=O)O)NC(=O)CNC(=O)[C@H](C)NC(=O)CCCCCCCCCCNC(=O)[C@H](CCCNC(=N)N)NC(=O)[C@H](CCCCN)NC(=O)[C@H](Cc1ccccc1)NC(=O)[C@H](CC(N)=O)NC(=O)[C@H](Cc1cnc[nH]1)NC(=O)[C@@H](NC(=O)[C@H](Cc1ccccc1)NC(=O)[C@@H](NC(=O)[C@H](C)NC(=O)[C@H](CCSC)NC(=O)[C@H](CCC(N)=O)NC(=O)[C@@H](NC(=O)[C@H](C)NC(=O)[C@@H](NC(=O)[C@H](CCCCN)NC(=O)[C@H](CC(C)C)NC(=O)[C@@H](N)Cc1cnc[nH]1)[C@@H](C)O)C(C)C)C(C)C)[C@@H](C)CC)[C@@H](C)CC)C(C)C)[C@@H](C)CC)[C@@H](C)CC)[C@@H](C)O)C(=O)N[C@@H](CCC(N)=O)C(N)=O` (H-HLKTAVQMAVFIHNFKR[Aun]AGERIVDIIATDIQ-NH2) are “Active” and 850 nM.
In turn, `CC[C@H](C)[C@H](NC(=O)[C@H](CC(=O)O)NC(=O)[C@@H](NC(=O)[C@H](C)NC(=O)[C@@H](NC(=O)[C@@H](NC(=O)[C@H](CC(=O)O)NC(=O)[C@@H](NC(=O)[C@@H](NC(=O)[C@H](CCCNC(=N)N)NC(=O)[C@H](CCC(=O)O)NC(=O)CNC(=O)[C@H](C)NC(=O)CCCCNC(=O)[C@H](CCCNC(=N)N)NC(=O)[C@H](CCCCN)NC(=O)[C@H](Cc1ccccc1)NC(=O)[C@H](CC(N)=O)NC(=O)[C@H](Cc1cnc[nH]1)NC(=O)[C@@H](NC(=O)[C@H](Cc1ccccc1)NC(=O)[C@@H](NC(=O)[C@H](C)NC(=O)[C@H](CCSC)NC(=O)[C@H](CCC(N)=O)NC(=O)[C@@H](NC(=O)[C@H](C)NC(=O)[C@@H](NC(=O)[C@H](CCCCN)NC(=O)[C@H](CC(C)C)NC(=O)[C@@H](N)Cc1cnc[nH]1)[C@@H](C)O)C(C)C)C(C)C)[C@@H](C)CC)[C@@H](C)CC)C(C)C)[C@@H](C)CC)[C@@H](C)CC)[C@@H](C)O)C(=O)N[C@@H](CCC(N)=O)C(N)=O` (H-HLKTAVQMAVFIHNFKR[Ava]AGERIVDIIATDIQ-NH2) showed an IC50 in experiment [2] of 3750 nM.
`CC[C@H](C)[C@H](NC(=O)[C@H](CC(=O)O)NC(=O)[C@@H](NC(=O)[C@H](C)NC(=O)[C@@H](NC(=O)[C@@H](NC(=O)[C@H](CC(=O)O)NC(=O)[C@@H](NC(=O)[C@@H](NC(=O)[C@H](CCCNC(=N)N)NC(=O)[C@H](CCC(=O)O)NC(=O)CNC(=O)[C@H](C)NC(=O)CCCCCCCCNC(=O)[C@H](CCCNC(=N)N)NC(=O)[C@H](CCCCN)NC(=O)[C@H](Cc1ccccc1)NC(=O)[C@H](CC(N)=O)NC(=O)[C@H](Cc1cnc[nH]1)NC(=O)[C@@H](NC(=O)[C@H](Cc1ccccc1)NC(=O)[C@@H](NC(=O)[C@H](C)NC(=O)[C@H](CCSC)NC(=O)[C@H](CCC(N)=O)NC(=O)[C@@H](NC(=O)[C@H](C)NC(=O)[C@@H](NC(=O)[C@H](CCCCN)NC(=O)[C@H](CC(C)C)NC(=O)[C@@H](N)Cc1cnc[nH]1)[C@@H](C)O)C(C)C)C(C)C)[C@@H](C)CC)[C@@H](C)CC)C(C)C)[C@@H](C)CC)[C@@H](C)CC)[C@@H](C)O)C(=O)N[C@@H](CCC(N)=O)C(N)=O` (H-HLKTAVQMAVFIHNFKR[NH(CH2)8CO]AGERIVDIIATDIQ-NH2): the inhibition entry in experiment [1] is “Active”. It took 720 nM to reach half-maximal inhibition in experiment [2] (IC50).
For the compound `CC[C@H](C)[C@H](NC(=O)[C@H](CC(=O)O)NC(=O)[C@@H](NC(=O)[C@H](C)NC(=O)[C@@H](NC(=O)[C@@H](NC(=O)[C@H](CC(=O)O)NC(=O)[C@@H](NC(=O)[C@@H](NC(=O)[C@H](CCCNC(=N)N)NC(=O)[C@H](CCC(=O)O)NC(=O)CNC(=O)[C@H](C)NC(=O)CCCCCCCCCNC(=O)[C@H](CCCNC(=N)N)NC(=O)[C@H](CCCCN)NC(=O)[C@H](Cc1ccccc1)NC(=O)[C@H](CC(N)=O)NC(=O)[C@H](Cc1cnc[nH]1)NC(=O)[C@@H](NC(=O)[C@H](Cc1ccccc1)NC(=O)[C@@H](NC(=O)[C@H](C)NC(=O)[C@H](CCSC)NC(=O)[C@H](CCC(N)=O)NC(=O)[C@@H](NC(=O)[C@H](C)NC(=O)[C@@H](NC(=O)[C@H](CCCCN)NC(=O)[C@H](CC(C)C)NC(=O)[C@@H](N)Cc1cnc[nH]1)[C@@H](C)O)C(C)C)C(C)C)[C@@H](C)CC)[C@@H](C)CC)C(C)C)[C@@H](C)CC)[C@@H](C)CC)[C@@H](C)O)C(=O)N[C@@H](CCC(N)=O)C(N)=O` (H-HLKTAVQMAVFIHNFKR[NH(CH2)9CO]AGERIVDIIATDIQ-NH2), the inhibition result in experiment [1] was “Active”. In experiment [2], this compound gave an IC50 of 760 nM.
With H-AGERIVDIIATDIQ-NH2, 3000 nM corresponded to half-maximal inhibition in experiment [2] (IC50).
Same read-out and setting: the figure for H-HLKTAVQMAVFIHNFKR-OH is 2000 nM.
